Measurements from patent US8449898B2 (priority 2007, dated 2013).
Like-named read-outs stand apart in the source and are kept apart here.

Columns and labels:
[1] = tested on: Pseudoperonospora cubensis (the causal agent of cucumber downy mildew); assay: Test B: cucumber downy mildew, preventive spray on cucumber seedlings; type: in vivo; conditions: for CDM Obsd (disease control rating): Table B
[2] = tested on: Phytophthora infestans (the causal agent of tomato late blight); assay: whole plant or invertebrate; type: in vivo; conditions: for TLB Obsd: component (b) alone; for TLB Obsd (disease control rating): Table B
[3] = Pseudoperonospora cubensis, component (b) alone, 2 ppm, read-out: CDM Obsd
[4] = Pseudoperonospora cubensis, component (b) alone, 10 ppm, read-out: CDM Obsd
[5] = Pseudoperonospora cubensis, component (b) alone, 40 ppm, read-out: CDM Obsd
[6] = Pseudoperonospora cubensis, component (b) alone, 200 ppm, read-out: CDM Obsd
[7] = Phytophthora infestans, read-out: TLB Obsd, component (b) alone, 2 ppm
[8] = Phytophthora infestans, read-out: TLB Obsd, component (b) alone, 10 ppm
[9] = Phytophthora infestans, read-out: TLB Obsd, component (b) alone, 40 ppm
[10] = Phytophthora infestans, read-out: TLB Obsd, component (b) alone, 200 ppm
[11] = component (b) alone 0.08 ppm (Compound 1 0 ppm)
[12] = component (b) alone 0.4 ppm (Compound 1 0 ppm)
[13] = component (b) alone 2 ppm (Compound 1 0 ppm)
[14] = component (b) alone 10 ppm (Compound 1 0 ppm)

## Cc1cc(C(F)(F)F)nn1CC(=O)N1CCC(c2nc(C3=NOC(C)(c4ccccc4)C3)cs2)CC1 (stereo not drawn)
other
  melting point: 97 to 100 °C

## Cc1cc(C(F)(F)F)nn1CC(=O)N1CCC(c2nc(C3=NOC4c5ccccc5CCC34)cs2)CC1 (stereo not drawn)
other
  melting point: 162 to 165 °C

## COc1ccc(C2CC(c3csc(C4CCN(C(=O)Cn5nc(C(F)(F)F)cc5C)CC4)n3)=NO2)cc1 (stereo not drawn)
other
  melting point: 119 to 124 °C

## CCc1cc(C(F)(F)F)nn1CC(=O)N1CCC(c2nc(C3=NOC(c4ccccc4)C3)cs2)CC1 (stereo not drawn)
other
  melting point: 128 to 133 °C

## O=C(Cn1nc(C(F)(F)F)cc1C(F)(F)F)N1CCC(c2nc(C3=NOC(c4ccccc4)C3)cs2)CC1 (stereo not drawn)
other
  melting point: 130 to 133 °C

## Fc1ccc(Oc2ccnc3cc(Cl)cc(Cl)c23)cc1 [quinoxyfen]
[1]; Pseudoperonospora cubensis, Table F, component (b) alone at 0.016 ppm, read-out: CDM Obsd
  pest or weed control at 0.016 ppm: 26%
[1]; Pseudoperonospora cubensis, Table F, component (b) alone at 0.08 ppm, read-out: CDM Obsd
  pest or weed control at 0.08 ppm: 26%
[1]; Pseudoperonospora cubensis, Table F, component (b) alone at 0.4 ppm, read-out: CDM Obsd
  pest or weed control at 0.4 ppm: 26%
[1]; Pseudoperonospora cubensis, Table F, component (b) alone at 2 ppm, read-out: CDM Obsd
  pest or weed control at 2 ppm: 26%
[1]; Pseudoperonospora cubensis, Table F, component (b) alone at 10 ppm, read-out: CDM Obsd
  pest or weed control at 10 ppm: 26%
[1]; Pseudoperonospora cubensis, component (b) alone, 0.4 ppm, read-out: CDM Obsd
  pest or weed control at 0.4 ppm: 0%
[1]; [3]
  pest or weed control at 2 ppm: 0%
[1]; [4]
  pest or weed control at 10 ppm: 0%
[1]; [5]
  pest or weed control at 40 ppm: 0%
[1]; [6]
  pest or weed control at 200 ppm: 0%
[2]; Phytophthora infestans, read-out: TLB Obsd, Table E, component (b) alone at 0.016 ppm
  pest or weed control at 0.016 ppm: 9%
[2]; Phytophthora infestans, read-out: TLB Obsd, Table E, component (b) alone at 0.08 ppm
  pest or weed control at 0.08 ppm: 24%
[2]; Phytophthora infestans, read-out: TLB Obsd, Table E, component (b) alone at 0.4 ppm
  pest or weed control at 0.4 ppm: 26%
[2]; Phytophthora infestans, read-out: TLB Obsd, Table E, component (b) alone at 2 ppm
  pest or weed control at 2 ppm: 9%
[2]; Phytophthora infestans, read-out: TLB Obsd, Table E, component (b) alone at 10 ppm
  pest or weed control at 10 ppm: 9%
[2]; Phytophthora infestans, read-out: TLB Obsd, component (b) alone, 0.4 ppm
  pest or weed control at 0.4 ppm: 0%
[2]; [7]
  pest or weed control at 2 ppm: 7%
[2]; [8]
  pest or weed control at 10 ppm: 7%
[2]; [9]
  pest or weed control at 40 ppm: 0%
[2]; [10]
  pest or weed control at 200 ppm: 0%

## CON=C(C(=O)OC)c1ccccc1CON=C(C)c1cccc(C(F)(F)F)c1 [trifloxystrobin]
[1]; Pseudoperonospora cubensis, Table C, component (b) alone 0.4 ppm, read-out: CDM Obsd (disease control rating)
  pest or weed control at 0.4 ppm: 47%
[1]; Pseudoperonospora cubensis, Table C, component (b) alone 2 ppm, read-out: CDM Obsd (disease control rating)
  pest or weed control at 2 ppm: 47%
[1]; Pseudoperonospora cubensis, Table C, component (b) alone 10 ppm, read-out: CDM Obsd (disease control rating)
  pest or weed control at 10 ppm: 58%
[1]; Pseudoperonospora cubensis, Table C, component (b) alone 40 ppm, read-out: CDM Obsd (disease control rating)
  pest or weed control at 40 ppm: 94%
[1]; Pseudoperonospora cubensis, Table C, component (b) alone 200 ppm, read-out: CDM Obsd (disease control rating)
  pest or weed control at 200 ppm: 100%
[1]; Pseudoperonospora cubensis, component (b) alone 0.4 ppm (Compound 1 0 ppm), read-out: CDM Obsd
  pest or weed control at 0.4 µg/mL: 47%
[1]; Pseudoperonospora cubensis, component (b) alone 2 ppm (Compound 1 0 ppm), read-out: CDM Obsd
  pest or weed control at 2 µg/mL: 47%
[1]; Pseudoperonospora cubensis, component (b) alone 10 ppm (Compound 1 0 ppm), read-out: CDM Obsd
  pest or weed control at 10 µg/mL: 57%
[1]; Pseudoperonospora cubensis, component (b) alone 40 ppm (Compound 1 0 ppm), read-out: CDM Obsd
  pest or weed control at 40 µg/mL: 93%
[1]; Pseudoperonospora cubensis, component (b) alone 200 ppm (Compound 1 0 ppm), read-out: CDM Obsd
  pest or weed control at 200 µg/mL: 100%
[1]; Pseudoperonospora cubensis, component (b) alone, 0.04 ppm, read-out: CDM Obsd
  pest or weed control at 0.04 ppm: 0%
[1]; [3]
  pest or weed control at 2 ppm: 0%
[1]; [4]
  pest or weed control at 10 ppm: 16%
[1]; [5]
  pest or weed control at 40 ppm: 89%
[1]; [6]
  pest or weed control at 200 ppm: 100%
[2]; Phytophthora infestans, read-out: TLB Obsd (disease control rating), Table C, component (b) alone 0.4 ppm
  pest or weed control at 0.4 ppm: 0%
[2]; Phytophthora infestans, read-out: TLB Obsd (disease control rating), Table C, component (b) alone 2 ppm
  pest or weed control at 2 ppm: 40%
[2]; Phytophthora infestans, read-out: TLB Obsd (disease control rating), Table C, component (b) alone 10 ppm
  pest or weed control at 10 ppm: 26%
[2]; Phytophthora infestans, read-out: TLB Obsd (disease control rating), Table C, component (b) alone 40 ppm
  pest or weed control at 40 ppm: 45%
[2]; Phytophthora infestans, read-out: TLB Obsd (disease control rating), Table C, component (b) alone 200 ppm
  pest or weed control at 200 ppm: 53%
[2]; Phytophthora infestans, read-out: TLB Obsd, component (b) alone, 0.04 ppm
  pest or weed control at 0.04 ppm: 0%
[2]; [7]
  pest or weed control at 2 ppm: 0%
[2]; [8]
  pest or weed control at 10 ppm: 72%
[2]; [9]
  pest or weed control at 40 ppm: 38%
[2]; [10]
  pest or weed control at 200 ppm: 25%

## COC(=O)CC(NC(=O)[C@@H](NC(=O)OC(C)C)C(C)C)c1ccc(Cl)cc1 (stereo partly drawn) [valiphenal]
[1]; component (b) alone 0.016 ppm (Compound 1 0 ppm)
  CDM Obsd: 65%
[1]; [11]
  CDM Obsd: 47%
[1]; [12]
  CDM Obsd: 47%
[1]; [13]
  CDM Obsd: 47%
[1]; [14]
  CDM Obsd: 57%
[1]; component (b) alone, 0.016 ppm
  CDM Obsd: 31%
[1]; component (b) alone, 0.08 ppm
  CDM Obsd: 16%
[1]; component (b) alone, 0.4 ppm
  CDM Obsd: 16%
[1]; component (b) alone, 2 ppm
  CDM Obsd: 53%
[1]; component (b) alone, 10 ppm
  CDM Obsd: 100%
[2]; 0.016 ppm
  TLB Obsd: 8%
[2]; 0.08 ppm
  TLB Obsd: 8%
[2]; 0.4 ppm
  TLB Obsd: 8%
[2]; 2 ppm
  TLB Obsd: 32%
[2]; 10 ppm
  TLB Obsd: 99%

## benthiovalicarb
[1]; component (b) alone 0.4 ppm
  CDM Obsd (disease control rating): 90%
[1]; component (b) alone 2 ppm
  CDM Obsd (disease control rating): 100%
[1]; component (b) alone 10 ppm
  CDM Obsd (disease control rating): 100%
[1]; component (b) alone 40 ppm
  CDM Obsd (disease control rating): 100%
[1]; [11]
  CDM Obsd: 33%
[1]; [12]
  CDM Obsd: 86%
[1]; [13]
  CDM Obsd: 100%
[1]; [14]
  CDM Obsd: 100%
[1]; component (b) alone 40 ppm (Compound 1 0 ppm)
  CDM Obsd: 100%
[2]; component (b) alone 0.4 ppm
  TLB Obsd (disease control rating): 53%
[2]; component (b) alone 2 ppm
  TLB Obsd (disease control rating): 100%
[2]; component (b) alone 10 ppm
  TLB Obsd (disease control rating): 100%
[2]; component (b) alone 40 ppm
  TLB Obsd (disease control rating): 100%
